This note sets out measurements from patent publication US11034751B1, “Methods and compositions for treating cancer using serotonin receptor inhibitors” (Flagship Pioneering Innovations V, Inc., priority 2018, dated 2021).

In the test the test system is macrophages. Description: IL8 secretion by macrophages incubated with serotonin receptor agonists (bead-based immunoassay). It is filed as cell-based. To be noted: human monocyte-derived macrophages (M-CSF). The method, then: CD14+ monocytes were isolated from human PBMCs using negative magnetic bead selection (Stemcell Technologies) on day 0. Cells were cultured with M-CSF to differentiate monocytes to macrophages. On day 6, cells were treated with LP44 (high affinity 5-HT7 agonist), BW 723C86 hydrochloride (5-HT2B agonist), MK 212 hydrochloride (5-HT2C agonist) (Sigma-Aldrich), at concentrations 1 μM and 10 μM overnight. Supernatant was collected and bead-based immunoassays (Biolegend) were performed to detect changes in cytokine secretion.
Across multiple human donors, secretion of the inflammatory cytokine, IL8, by macrophages was decreased after addition of each of the HTR2B, HTR2C, and HTR7 agonists, as show in Table 18 below.

For `Clc1cncc(N2CCNCC2)n1` [MK212], the “Fold change of IL-8 (Normalized to Macs + LPS with no compound treatment)” value by setting is: (1 μM overnight) 0.502; (10 μM overnight) 0.484.
As for `CC(N)Cc1c[nH]c2ccc(OCc3cccs3)cc12.Cl` (stereo not drawn) [BW723086], the “Fold change of IL-8 (Normalized to Macs + LPS with no compound treatment)” value was determined as 0.670 (1 μM overnight) and 0.508 (10 μM overnight).
The matching figures for `CSc1ccccc1N1CCN(CCCCCC(=O)NC2CCCc3ccccc32)CC1` (stereo not drawn) [LP44]: 0.340 and 0.427.
